Results: patent US9387219B2, “Edible composition” (Conopco, Inc., priority 2011, dated 2016)

Columns and labels:
GLUT2 = molecular target: T1, GLUT2 (Homo sapiens, UniProt P11168); experiment: Glucose transport inhibitor cell screening assay, 25 mM D-glucose for 30 minutes (GLUT2 inhibition); assay type: cell-based; details: differentiated Caco-2 monolayer, 30 minutes, active at 150 uM
T1 construct: endogenous in cells; host or cells: differentiated Caco-2 cell monolayers (ATCC)
T1 sequence (P11168 1-524): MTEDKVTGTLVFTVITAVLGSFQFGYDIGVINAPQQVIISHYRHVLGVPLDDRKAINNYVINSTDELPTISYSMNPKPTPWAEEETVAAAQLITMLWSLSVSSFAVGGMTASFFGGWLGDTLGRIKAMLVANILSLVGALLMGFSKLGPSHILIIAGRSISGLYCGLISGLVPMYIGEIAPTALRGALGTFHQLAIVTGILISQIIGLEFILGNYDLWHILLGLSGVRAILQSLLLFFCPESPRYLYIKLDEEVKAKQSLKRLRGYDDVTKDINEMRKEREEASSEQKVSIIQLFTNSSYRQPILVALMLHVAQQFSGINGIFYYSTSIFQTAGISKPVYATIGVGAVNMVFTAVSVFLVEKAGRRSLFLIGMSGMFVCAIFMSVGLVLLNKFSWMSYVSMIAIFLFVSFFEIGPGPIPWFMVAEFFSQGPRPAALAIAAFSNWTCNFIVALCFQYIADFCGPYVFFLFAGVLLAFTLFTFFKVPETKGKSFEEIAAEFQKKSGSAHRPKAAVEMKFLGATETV
Method: (§1) Human epithelial colorectal adenocarcinoma (Caco-2) cells were obtained from the American Type Culture Collection (ATCC) and cultured in Growth Medium consisting of Dulbecco's modified Eagle's medium (containing Glutamax-1, 4.5 g/L D-glucose and 25 mM 4-(2-hydroxyethyl)-1-piperazine ethanesulphonic acid (Hepes) (Invitrogen)), 10% foetal bovine serum (Sigma), 1% non-essential amino acids (Invitrogen) and 1 mM sodium pyruvate (Sigma)). The cells were routinely passaged at approximately 80% confluence using TrypLE™ Express Stable Trypsin-Like Enzyme (Invitrogen) to detach the cells, and seeded at approximately 114 cells per mm^2 in fresh tissue culture flasks. Only cells between the passage numbers 45 and 49 were used for experiments.
(§2) Corning® HTS Transwell® 96 well permeable insert supports (Sigma) were collagen coated with 40 μl of 50 μg/ml rat tail collagen type I (BD Biosciences) in 0.02 M acetic acid for one hour at room temperature under sterile conditions. The inserts were washed twice in phosphate buffered saline (PBS (Invitrogen)) and the Caco-2 cells seeded into the inserts at 9.6×10^5 cell/ml (75 μl per insert) in Growth Medium and 30 ml of Growth Medium added to the feeder plate below. The cells were left to attach to the collagen matrix and form monolayers over 48 hours at 37° C., 5% CO2. Both inserts and feeder plate were washed in PBS and the cells incubated with BD Entero-STIM™ Enterocyte Differentiation Medium containing MITO+™ Serum Extender solution (both BD Biosciences), 75 μl per insert and 30 ml in the feeder plate, for a further 48 hours at 37° C., 5% CO2.
(§3) Differentiated cell monolayers were washed gently in Dulbecco's Phosphate Buffered Saline containing CaCl2 and MgCl2 (PBS(+) (Invitrogen)) and the inserts transferred to a new Corning® HTS Transwell®-96 well receiver plate (Sigma). The cells were incubated with fresh PBS(+) (75 μl per insert and 225 μl per well) for 60 minutes at 37° C., 5% CO2. The PBS(+) was gently aspirated and replaced with 75 μl per insert of either 5 mM D-glucose (Sigma)±test active or 25 mM D-glucose±test active in triplicate and 225 μl per well of PBS(+) quickly added to each well. The 5 mM glucose wells and the 25 mM glucose wells were incubated at 37° C., 5% CO2 for 15 minutes and 30 minutes, respectively. Details of all the actives tested are found in table 1. The cell inserts were transferred to a new receiver plate, the supernatant gently aspirated from the cells and replaced with 100 μl of 100 μM of Lucifer Yellow (Sigma) solution to confirm the integrity of the monolayers. 225 μl of PBS(+) was added to each well and incubated at 37° C., 5% CO2 for 1 hour. The cell inserts were then discarded and the permeability of the membranes to Lucifer Yellow checked by measuring the fluorescence of the samples at 485 nm (excitation) and 530 nm (emission) on a Spectramax Gemini EM fluorescence microplate reader.
(§4) The amount of glucose transported across the cell monolayers was measured using a glucose assay based on Invitrogen's Amplex Red Glucose/Glucose oxidase Assay Kit. Briefly, 50 μl of each test sample was transferred to a black sided/clear bottom 96-well plate (Greiner Bio-One) to which 100 μl of reaction buffer (0.5 μl 10 mM Ampliflu Red, 1 μl 10 U/ml Horse Radish peroxidase, 1 μl 100 U/ml glucose oxidase and 97.5 μl PBS (all Sigma)) was added. After 10 minutes incubation at room temperature, the fluorescence of the samples were measured at 530 nm (excitation) and 590 nm (emission) on a Spectramax Gemini EM fluorescence microplate reader and the glucose concentration extrapolated from a standard curve.
(§5) At higher D-glucose concentrations, the SGLT1 transporter becomes saturated and consequently the majority of glucose transport across the monolayer is driven by the low affinity, high capacity GLUT2 transporter that is targeted to the apical membrane only following an initial SGLT1-dependent transport of glucose.

SGLT1 = molecular target: T2, SGLT1 (Homo sapiens, UniProt P13866); experiment: Glucose transport inhibitor cell screening assay, 5 mM D-glucose for 15 minutes (SGLT1 inhibition); assay type: cell-based; details: for Class (assigned class of transporter inhibited): assigned from % inhibition at 5 mM and 25 mM D-glucose in Caco-2 cells; for SGLT1 inhibitory activity (in words): Caco-2 cell model
T2 construct: endogenous in cells; host or cells: differentiated Caco-2 cell monolayers (ATCC)
T2 sequence (P13866 1-664): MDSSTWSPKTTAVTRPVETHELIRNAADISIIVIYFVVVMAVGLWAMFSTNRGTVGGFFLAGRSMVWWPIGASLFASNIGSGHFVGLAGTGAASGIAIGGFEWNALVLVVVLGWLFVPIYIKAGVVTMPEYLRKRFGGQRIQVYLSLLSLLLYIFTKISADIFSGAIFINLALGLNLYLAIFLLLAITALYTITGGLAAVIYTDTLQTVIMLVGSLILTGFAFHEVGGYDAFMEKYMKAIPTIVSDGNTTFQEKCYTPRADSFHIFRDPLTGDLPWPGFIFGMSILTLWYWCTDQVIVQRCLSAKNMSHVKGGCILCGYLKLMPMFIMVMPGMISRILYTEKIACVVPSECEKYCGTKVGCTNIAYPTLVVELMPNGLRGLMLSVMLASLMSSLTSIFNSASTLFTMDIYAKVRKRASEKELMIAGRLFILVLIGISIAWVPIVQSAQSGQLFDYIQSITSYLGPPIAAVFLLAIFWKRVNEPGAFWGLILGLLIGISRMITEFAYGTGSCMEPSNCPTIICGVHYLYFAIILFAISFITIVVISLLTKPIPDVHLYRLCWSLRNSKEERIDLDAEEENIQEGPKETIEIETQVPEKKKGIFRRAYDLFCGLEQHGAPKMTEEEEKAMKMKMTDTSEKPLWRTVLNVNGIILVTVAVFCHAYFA
Method: as §1, §2, §3, §4, §5

[1] = differentiated Caco-2 monolayer, 5 mM D-glucose, 15 minutes, active at 300 uM

Row | inhibition at 300 µM (SGLT1; [1]) [%] | inhibition at 150 µM (GLUT2) [%] | SGLT1 inhibitory activity (in words) (SGLT1; 5 mM D-glucose) | SMILES | % Glucose Transport inhibition 25 mM (GLUT2) [%] | Class (assigned class of transporter inhibited) (SGLT1) | % Glucose Transport inhibition 5 mM (SGLT1; [1]) [%]
1 | – | – | – | O=c1cc(-c2ccc(O)cc2)oc2cc(OC3O[C@H](CO)[C@@H](O)[C@H](O)[C@H]3O)cc(O)c12 (stereo partly drawn) [Apigenin-7-glucoside] | 12.81 | – | –
2 | 56.8 | 49.3 | – | O=c1cc(-c2ccc(O)cc2)oc2cc(O)cc(O)c12 [Apigenin] | – | GLUT2 (GLUT2 inhibitors having ≧20% inhibition at both 5 mM and 25 mM D-glucose levels) | –
3 | – | – | inhibition of SGLT1 | OC[C@H]1O[C@@H](Oc2cc3c(O)cc(O)cc3[o+]c2-c2ccc(O)c(O)c2)[C@H](O)[C@@H](O)[C@@H]1O [Cyanidin-3-glucoside] | – | SGLT1 | –
4 | – | – | absence of SGLT1 inhibitory activity | C[C@@H]1O[C@@H](OC[C@H]2O[C@@H](Oc3cc4c(O)cc(O)cc4[o+]c3-c3ccc(O)c(O)c3)[C@H](O)[C@@H](O)[C@@H]2O)[C@H](O)[C@H](O)[C@H]1O [Cyanidin-3-rutinoside] | – | None | –
5 | – | – | inhibition of SGLT1 | O=c1c(-c2ccc(O)cc2)coc2c([C@@H]3O[C@H](CO)[C@@H](O)[C@H](O)[C@H]3O)c(O)ccc12 [Daidze in-8-C-glucoside] | – | SGLT1 | –
6 | – | – | inhibition of SGLT1 | OC[C@H]1O[C@@H](Oc2cc3c(O)cc(O)cc3[o+]c2-c2cc(O)c(O)c(O)c2)[C@H](O)[C@@H](O)[C@@H]1O [Delphinidin-3-glucoside] | – | SGLT1 | –
7 | – | – | – | Oc1cc(O)c2cc(O)c(-c3cc(O)c(O)c(O)c3)[o+]c2c1 [Delphinindin] | 15.86 | – | –
8 | – | – | inhibition of SGLT1 | O=C1C[C@@H](c2ccc(O)c(O)c2)Oc2cc(O[C@@H]3O[C@H](CO)[C@@H](O)[C@H](O)[C@H]3O)cc(O)c21 [Eriodictiol-7-O-glucoside] | 4.98 | SGLT1 | –
9 | 56.5 | 57.7 | – | O=c1c(-c2ccc(O)cc2)coc2cc(O)cc(O)c12 [Genistein] | – | GLUT2 (GLUT2 inhibitors having ≧20% inhibition at both 5 mM and 25 mM D-glucose levels) | –
10 | 72.3 | 74.4 | – | COc1ccc([C@@H]2CC(=O)c3c(O)cc(O)cc3O2)cc1O [Hesperetin] | – | GLUT2 (GLUT2 inhibitors having ≧20% inhibition at both 5 mM and 25 mM D-glucose levels) | –
11 | 26 | 32.4 | – | O=c1c(O)c(-c2ccc(O)cc2)oc2cc(O)cc(O)c12 [Kaempferol] | – | GLUT2 (GLUT2 inhibitors having ≧20% inhibition at both 5 mM and 25 mM D-glucose levels) | –
12 | 77.4 | 63.2 | – | O=c1cc(-c2ccc(O)c(O)c2)oc2cc(O)cc(O)c12 [Luteolin] | – | GLUT2 (GLUT2 inhibitors having ≧20% inhibition at both 5 mM and 25 mM D-glucose levels) | –
13 | 76.8 | 55 | – | O=c1c(O)c(-c2cc(O)c(O)c(O)c2)oc2cc(O)cc(O)c12 [Myricetin] | – | GLUT2 (GLUT2 inhibitors having ≧20% inhibition at both 5 mM and 25 mM D-glucose levels) | –
14 | 69 | 57 | – | O=C1C[C@@H](c2ccc(O)cc2)Oc2cc(O)cc(O)c21 [Naringenin] | – | GLUT2 (GLUT2 inhibitors having ≧20% inhibition at both 5 mM and 25 mM D-glucose levels) | –
15 | 4.07 | – | – | Oc1ccc(-c2[o+]c3cc(O)cc(O)c3cc2O)cc1 [Pelargonidin] | – | – | –
16 | 47.7 | 48.1 | – | O=C1C[C@@H](c2ccccc2)Oc2cc(O)cc(O)c21 [Pinocembrin] | – | GLUT2 (GLUT2 inhibitors having ≧20% inhibition at both 5 mM and 25 mM D-glucose levels) | –
17 | – | – | destroys this inhibitory action | O=c1c(O[C@@H]2O[C@H](CO)[C@@H](O)[C@H](O)[C@H]2O)c(-c2ccc(O[C@@H]3O[C@H](CO)[C@@H](O)[C@H](O)[C@H]3O)c(O)c2)oc2cc(O)cc(O)c12 [Quercetin-3,4′-diglucoside] | – | None | –
18 | – | – | lack of SGLT1 inhibitory activity | OC[C@H]1O[C@@H](Oc2ccc(O)cc2)[C@H](O)[C@@H](O)[C@@H]1O [arbutin] | – | – | –

Row | SMILES | inhibition at 300 µM (SGLT1; [1]) [%] | inhibition at 150 µM (GLUT2) [%] | SGLT1 inhibitory activity (in words) (SGLT1; 5 mM D-glucose) | % Glucose Transport inhibition 25 mM (GLUT2) [%] | Class (assigned class of transporter inhibited) (SGLT1) | % Glucose Transport inhibition 5 mM (SGLT1; [1]) [%]
19 | Oc1cc(O)c2cc(O)c(-c3ccc(O)c(O)c3)[o+]c2c1 [Cyanidin] | 7.93 | 3.21 | – | – | – | –
20 | O=c1c(-c2ccc(O)cc2)coc2cc(O[C@@H]3O[C@H](CO)[C@@H](O)[C@H](O)[C@H]3O)ccc12 [Daidzein-7-glucoside] | – | – | inhibition of SGLT1 | 7.23 | SGLT1 | 35.03
21 | COc1cc(-c2[o+]c3cc(O)cc(O)c3cc2O[C@@H]2O[C@H](CO)[C@H](O)[C@H](O)[C@H]2O)cc(OC)c1O [Malvidin 3-O-Galactoside] | – | – | absence of SGLT1 inhibitory activity | 10.41 | None | –
22 | COc1cc(-c2[o+]c3cc(O)cc(O)c3cc2O[C@@H]2O[C@H](CO)[C@@H](O)[C@H](O)[C@H]2O)cc(OC)c1O [Malvidin-3-O-glucoside] | – | – | inhibition of SGLT1 | 10.91 | SGLT1 | –
23 | O=C(CCc1ccc(O)cc1)c1c(O)cc(O)cc1O [Phloretin, reference compound] | – | 76.1 | – | – | – | –
